In EPA's ToxRefDB 2:

Columns and labels:
rat [1] = settings: Fertility (Segment I); sprague dawley; Oral; Gavage/Intubation; dose end: 7 GD; group: parental; systemic / in life observation / food consumption / food consumption + systemic / organ weight / uterus / nos
rat [2] = settings: Sub-acute repeat dose toxicity; sprague dawley; Oral; Gavage/Intubation; dose end: 4 week; group: systemic; systemic / hematology / blood clotting / blood clotting - activated partial thromboplastin time + systemic / hematology / blood clotting / …
dog [3] = settings: Subchronic oral toxicity in nonrodent, beagle, Gavage/Intubation, dose end: 3 month, group: systemic, systemic / hematology / blood clotting / blood clotting - activated partial thromboplastin time + systemic / hematology / blood clotting / …
rat [4] = settings: Chronic toxicity, sprague dawley, Oral, Gavage/Intubation, dose end: 6 month, group: systemic
rat [5] = settings: Prenatal developmental toxicity study, sprague dawley, Oral, Gavage/Intubation, dose end: 17 GD
rat [6] = settings: Prenatal developmental toxicity study; sprague dawley; Oral; Gavage/Intubation; dose end: 17 GD; group: maternal; systemic / in life observation / body weight / body weight gain
dog [7] = settings: Sub-acute repeat dose toxicity; beagle; Oral; Gavage/Intubation; dose end: 4 week; group: systemic; systemic / hematology / blood clotting / blood clotting - prothrombin time + systemic / hematology / blood clotting / blood clotting - …
rabbit [8] = settings: Prenatal developmental toxicity study, new zealand white, Oral, Gavage/Intubation, dose end: 19 GD
rabbit [9] = settings: Prenatal developmental toxicity study, new zealand white, Oral, Gavage/Intubation, dose end: 19 GD; remark: listed apart in the source
[10] = systemic / hematology / blood clotting / blood clotting - activated partial thromboplastin time + systemic / hematology / blood clotting / …
[11] = systemic / in life observation / body weight / body weight gain + systemic / organ weight / pituitary gland / relative to body weight + …
[12] = group: developmental, developmental / developmental malformation / bone / supernumerary
[13] = group: maternal, systemic / in life observation / body weight / body weight gain + systemic / in life observation / food consumption / food consumption
[14] = group: developmental, systemic / in life observation / body weight / fetal weight
[15] = group: maternal, systemic / in life observation / body weight / body weight gain + systemic / in life observation / food consumption / food consumption + …
[16] = group: developmental, developmental / developmental malformation / general / [other] + systemic / in life observation / body weight / fetal weight
[17] = group: maternal, systemic / in life observation / body weight / body weight gain + systemic / in life observation / clinical signs / alopecia + systemic / in…

O=C([O-])c1ccc2c(c1)nc(C(=O)NC1CCN(C3CC3)CC1)n2Cc1cc(-c2ccc(Cl)s2)on1.[Na+] [AVE3247]
LEL (rat [1]): 2000 mg/kg/day
LOAEL (rat [1]): > 2000 mg/kg/day
NEL (rat [1]): 500 mg/kg/day
NOAEL (rat [1]): ≥ 2000 mg/kg/day
LEL (rat [2]): 200 mg/kg/day
LOAEL (rat [2]): > 2000 mg/kg/day
NEL (rat [2]): < 200 mg/kg/day
NOAEL (rat [2]): ≥ 2000 mg/kg/day
LEL (dog [3]): 10 mg/kg/day
LOAEL (dog [3]): > 80 mg/kg/day
NEL (dog [3]): < 10 mg/kg/day
NOAEL (dog [3]): ≥ 80 mg/kg/day
LEL (rat [4]; [10]): 200 mg/kg/day
NEL (rat [4]; [10]): < 200 mg/kg/day
LOAEL (rat [4]; [11]): 2000 mg/kg/day
NOAEL (rat [4]; [11]): 500 mg/kg/day
LEL (rat [5]; [12]): 500 mg/kg/day
LOAEL (rat [5]; [12]): 500 mg/kg/day
NEL (rat [5]; [12]): 200 mg/kg/day
NOAEL (rat [5]; [12]): 200 mg/kg/day
LEL (rat [5]; [13]): 2000 mg/kg/day
LOAEL (rat [5]; [13]): 2000 mg/kg/day
NEL (rat [5]; [13]): 500 mg/kg/day
NOAEL (rat [5]; [13]): 500 mg/kg/day
LEL (rat [6]): 2000 mg/kg/day
LOAEL (rat [6]): > 2000 mg/kg/day
NEL (rat [6]): 1000 mg/kg/day
NOAEL (rat [6]): ≥ 2000 mg/kg/day
LEL (dog [7]): 10 mg/kg/day
LOAEL (dog [7]): > 100 mg/kg/day
NEL (dog [7]): < 10 mg/kg/day
NOAEL (dog [7]): ≥ 100 mg/kg/day
LEL (rabbit [8]; [14]): 2000 mg/kg/day
LOAEL (rabbit [8]; [14]): 2000 mg/kg/day
NEL (rabbit [8]; [14]): 500 mg/kg/day
NOAEL (rabbit [8]; [14]): 500 mg/kg/day
LEL (rabbit [8]; [13]): 500 mg/kg/day
LOAEL (rabbit [8]; [13]): 500 mg/kg/day
NEL (rabbit [8]; [15]): 200 mg/kg/day
NOAEL (rabbit [8]; [15]): 200 mg/kg/day
LEL (rabbit [9]; [16]): 2000 mg/kg/day
LOAEL (rabbit [9]; [16]): > 2000 mg/kg/day
NEL (rabbit [9]; [16]): 1000 mg/kg/day
NOAEL (rabbit [9]; [16]): ≥ 2000 mg/kg/day
LEL (rabbit [9]; [17]): 500 mg/kg/day
LOAEL (rabbit [9]; [17]): 1000 mg/kg/day
NEL (rabbit [9]; [17]): < 500 mg/kg/day
NOAEL (rabbit [9]; [17]): 500 mg/kg/day
